Assay results reported in ChEMBL document CHEMBL4673321, “15β-Senecioyl-oxy-ent-kaur-16-en-19-oic Acid, a Diterpene Isolated from Baccharis lateralis, as Promising Oral Compound for the Treatment of Schistosomiasis” (J Nat Prod, 2020).
Activity calls are given as the source filed them. No cut-off for these calls is given here.

Tests used:
[1] = system: Schistosoma mansoni; assay: Antischistosomal activity against Schistosoma mansoni BH cercariae infected in mouse assessed as reduction in egg burden in fecal at 400 mg/kg, po administered as dose starting on day 49 post-infection and measured after 14 days post treatment relative to control; format: functional; set-up: scale not given: the % may be the effect or the level left; conditions: time 14 day
[2] = system: Schistosoma mansoni; assay: Antischistosomal activity against Schistosoma mansoni BH cercariae infected in mouse assessed as reduction in spleen weight at 400 mg/kg, po administered as dose starting on day 49 post-infection and measured after 14 days post treatment relative to control; format: functional; set-up: scale not given: the % may be the effect or the level left; conditions: time 14 day
[3] = system: Schistosoma mansoni; assay: Antischistosomal activity against Schistosoma mansoni BH cercariae infected in mouse assessed as reduction in egg burden in wall of intestine at 400 mg/kg, po administered as dose starting on day 49 post-infection and measured after 14 days post treatment relative to control; format: functional; set-up: scale not given: the % may be the effect or the level left; conditions: time 14 day
[4] = Selectivity index, ratio of CC50 for cytotoxicity against human HaCaT cells to LC50 for antischistosomal activity against Schistosoma mansoni BH; format: toxicity, cell-based; conditions: read-out: Selectivity Index
[5] = system: Schistosoma mansoni; assay: Antischistosomal activity against Schistosoma mansoni BH assessed as reduction in parasitic viability at 25 uM after 24 hrs inverted light microscopic method; format: functional, organism-based
[6] = system: Schistosoma mansoni; assay: Antischistosomal activity against Schistosoma mansoni BH assessed as reduction in parasitic viability after 72 hrs by inverted microscopic method; format: functional
[7] = system: Schistosoma mansoni; assay: Antischistosomal activity against Schistosoma mansoni BH cercariae infected in mouse assessed as reduction in liver weight at 400 mg/kg, po administered as dose starting on day 49 post-infection and measured after 14 days post treatment relative to control; format: functional; set-up: scale not given: the % may be the effect or the level left; conditions: time 14 day
[8] = system: Schistosoma mansoni; assay: Antischistosomal activity against female Schistosoma mansoni BH assessed as dilation of ovaries at 25 uM after 72 hrs microscopic method; format: functional, organism-based
[9] = system: Schistosoma mansoni; assay: Antischistosomal activity against male Schistosoma mansoni BH assessed as dilation of testes at 25 uM after 72 hrs microscopic method; format: functional, organism-based
[10] = Cytotoxicity against human HaCaT cells assessed as reduction in cell viability after 48 hrs by MTT assay; format: cell-based
[11] = Toxicity in mouse infected with Schistosoma mansoni BH cercariae at 400 mg/kg, po after 14 days administered as dose starting on day 49 post-infection and measured after 14 days; format: organism-based; conditions: in vivo, 336 h, time 14 day
[12] = Selectivity index, ratio of CC50 for cytotoxicity against human SH-SY5Y cells to LC50 for antischistosomal activity against Schistosoma mansoni BH; format: toxicity, cell-based; conditions: read-out: Selectivity Index
[13] = system: Schistosoma mansoni; assay: Antischistosomal activity against Schistosoma mansoni BH cercariae infected in mouse assessed as reduction in worm burden at 400 mg/kg, po administered as single dose starting on day 49 post-infection and measured after 14 days post treatment relative to control; format: functional; set-up: scale not given: the % may be the effect or the level left; conditions: time 14 day
[14] = Cytotoxicity against human SH-SY5Y cells assessed as reduction in cell viability after 48 hrs by MTT assay; format: cell-based
[15] = system: Schistosoma mansoni; assay: Antischistosomal activity against Schistosoma mansoni BH assessed as reduction in oviposition at 6.25 to 25 uM after 72 hrs light microscopic method; format: functional, organism-based; conditions: dose 6.25-25 µM
[16] = system: Schistosoma mansoni; assay: Antischistosomal activity against Schistosoma mansoni BH assessed as reduction in oviposition at 25 uM after 72 hrs light microscopic method; format: functional, organism-based

SMILES: C=C1[C@@H]2CC[C@H]3[C@]4(C)CCC[C@@](C)(C(=O)O)[C@H]4CC[C@]3(C2)[C@H]1OC(=O)C=C(C)C
- Activity [1]: 71.6%
- Activity [2]: 29.8%
- Activity [3]: 69.2%
- selectivity ratio [4]: 12.7
- Activity [5]: Active
- LC50 [6]: 11.6 µM
- Activity [7]: 23.5%
- Activity [8]: Active
- Activity [9]: Active
- CC50 at 48 h [10]: 147 µM
- Activity [11]: Non-Toxic
- selectivity ratio [12]: 9.1
- Activity [13]: 61.9%
- CC50 at 48 h [14]: 106 µM
- Activity [15]: Active

SMILES: C=C1C[C@@]23CC[C@H]4[C@@](C)(CCC[C@@]4(C)C(=O)O)[C@@H]2CC[C@@H]1C3 [KAURENOIC ACID]
- selectivity ratio [4]: 4.2
- Activity [5]: Active
- LC50 [6]: 26.1 µM
- Activity [8]: inactive
- Activity [9]: inactive
- CC50 at 48 h [10]: 109 µM
- selectivity ratio [12]: 1.7
- CC50 at 48 h [14]: 45.4 µM
- Activity [16]: Active

SMILES: O=C(C1CCCCC1)N1CC(=O)N2CCc3ccccc3C2C1 (stereo not given) [PRAZIQUANTEL]
- selectivity ratio [4]: > 180
- LC50 [6]: 1.1 µM
- CC50 at 48 h [10]: > 200 µM
- selectivity ratio [12]: > 180
- Activity [13]: 91.1%
- CC50 at 48 h [14]: > 200 µM
